Experimental data as given in ChEMBL document CHEMBL1201862, “PubChem BioAssay data set” (2004).
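Results reflect a 48-hour exposure of cells in 96-well plates to compound at five concentrations. Abbreviation: GI50, concentration required for 50% inhibition of growth.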 Activity calls are given as the source filed them. Rule as the data show it: active = GI50 up to about 1.1 µM and inactive = higher.

Columns and labels:
Test in all cases: DTP human tumour cell line panel, 48 h
DLD-1 = system: DLD-1
DMS-114 = system: DMS-114
DMS-273 = system: DMS-273
HOP-18 = system: HOP-18
LXFL 529 = system: LXFL 529
M19-MEL = system: M19-MEL
RXF 631 = system: RXF 631
SNB-78 = system: SNB-78
XF498 = system: XF498

Row | SMILES | GI50 (DLD-1) | GI50 (DMS-114) | GI50 (DMS-273) | GI50 (HOP-18) | GI50 (LXFL 529) | GI50 (M19-MEL) | GI50 (RXF 631) | GI50 (SNB-78) | GI50 (XF498)
1 | c1ccc(-c2nnc3nn4c(-c5ccccc5)cnnc4c3c2-c2ccccc2)cc1 | 95.1 µM (inactive) | 35.6 µM (inactive) | > 100 µM (inactive) | 53 µM (inactive) | 42.7 µM (inactive) | 88.7 µM (inactive) | 18.7 µM (inactive) | 31.7 µM (inactive) | 27.5 µM (inactive)
2 | CCCc1nn(C)c(CCC(=O)N(Cc2ccccc2)Cc2ccccc2)c1CC | > 100 µM (inactive) | > 100 µM (inactive) |  | > 100 µM (inactive) | > 100 µM (inactive) | > 100 µM (inactive) |  | > 100 µM (inactive) | > 100 µM (inactive)
3 | C1=CC2CCC1CN2CCC1CNc2ccccc21 (configuration not stated) | > 100 µM (inactive) | > 100 µM (inactive) | > 100 µM (inactive) | > 100 µM (inactive) | > 100 µM (inactive) | > 100 µM (inactive) |  | > 100 µM (inactive) | 52.7 µM (inactive)
4 | COC(=O)/C=C1/CCC2[C@@H](C(=O)CC3[C@]2(C)CCC[C@@]3(C)C(=O)OC)C1C (some centres not stated) | 12.7 µM (inactive) | 10.3 µM (inactive) | 12.7 µM (inactive) | 14.4 µM (inactive) | 6.22 µM (inactive) | 15.5 µM (inactive) | 15.5 µM (inactive) | 10 µM (inactive) | 15.3 µM (inactive)
5 | Cc1cc(O)nc(NNC(C#N)c2ccccc2O)n1 (configuration not stated) | 18.4 µM (inactive) | 19.8 µM (inactive) | 5.27 µM (inactive) | 23.3 µM (inactive) |  | 17.8 µM (inactive) |  |  | 
6 | COc1cc2c(c(OC)c1OC)-c1ccc(SC)c(=O)cc1C(CC(=O)Oc1cccc(F)c1)C2 (configuration not stated) | 0.397 µM (active) | 0.24 µM (active) | 0.214 µM (active) | > 62.2 µM (inactive) | 0.316 µM (active) | 0.263 µM (active) | 0.115 µM (active) | 0.237 µM (active) | 0.344 µM (active)
7 | COc1ccc(/C=N/N=C(\N)NO)cc1OC | 60.1 µM (inactive) | 28.7 µM (inactive) | 48.9 µM (inactive) |  | 33.9 µM (inactive) | 44.8 µM (inactive) |  | > 100 µM (inactive) | 35.1 µM (inactive)
8 | COC(=O)C1=C(c2ccc(OC)c(OC)c2)OC(c2ccc(OC)c(OC)c2)C1 (configuration not stated) | 5.93 µM (inactive) | 23.2 µM (inactive) | 54.7 µM (inactive) | 33.5 µM (inactive) | 16.2 µM (inactive) | 42.6 µM (inactive) |  | 28.7 µM (inactive) | 23.2 µM (inactive)
9 | COc1ccc(-c2cc(=O)c3c(O)cc(O)cc3o2)c(OC)c1OC | 81.3 µM (inactive) | 50.1 µM (inactive) |  |  | 49.3 µM (inactive) | 63 µM (inactive) |  |  | 63 µM (inactive)
10 | CCN(CC)c1ccc2c(c1)N=C1N=CC=CN1C2(c1ccc(N(C)C)cc1)c1ccc(N(C)C)cc1 | 4.53 µM (inactive) | 3.09 µM (inactive) | 25.8 µM (inactive) | 3.72 µM (inactive) | 3.84 µM (inactive) | 5.97 µM (inactive) | 3.83 µM (inactive) | 16.7 µM (inactive) | 3.72 µM (inactive)
11 | S=P(N1CC1)(N1CC1)N1CC1 [THIOTEPA] | 195 µM (inactive) | 35.4 µM (inactive) | 21.3 µM (inactive) | 231 µM (inactive) | 146 µM (inactive) | 142 µM (inactive) |  | 385 µM (inactive) | 95.1 µM (inactive)
12 | CS(=O)(=O)c1ccc(COP(N)(=O)N(CCCl)CCCl)cc1 (configuration not stated) | > 100 µM (inactive) | > 100 µM (inactive) | > 100 µM (inactive) |  | > 100 µM (inactive) | > 100 µM (inactive) |  | > 100 µM (inactive) | > 100 µM (inactive)
13 | O=C(N/C(=C\c1cccc([N+](=O)[O-])c1)c1nc2cc([N+](=O)[O-])ccc2[nH]1)c1ccccc1 | 28.4 µM (inactive) |  | 39 µM (inactive) |  | 11 µM (inactive) | 40.7 µM (inactive) | 28.8 µM (inactive) | 49.3 µM (inactive) | 20.7 µM (inactive)
14 | O=[N+]([O-])/C=C/c1ccc(Cl)cc1Cl | 24.7 µM (inactive) | 17.8 µM (inactive) | 11 µM (inactive) |  | 13.8 µM (inactive) | 5.77 µM (inactive) |  |  | 
15 | CN1C(=O)C(Cl)(C(Cl)(Cl)S(=O)(=O)O)C(=O)c2ccccc21.c1ccncc1 (configuration not stated) | > 100 µM (inactive) |  |  |  | > 100 µM (inactive) | > 100 µM (inactive) |  |  | 
16 | O=C1[C@@H]2C3SC(c4ccccc43)[C@@H]2C(=O)N1c1ccccc1 | > 100 µM (inactive) | > 100 µM (inactive) | > 100 µM (inactive) | > 90.4 µM (inactive) | > 100 µM (inactive) | > 100 µM (inactive) |  | > 100 µM (inactive) | 61 µM (inactive)
17 | CC[N+]1(C)CCC(O)(/C=C/c2ccccc2)C(C(=O)/C=C/c2ccccc2)C1 (configuration not stated) | 4.98 µM (inactive) | 6.62 µM (inactive) | 4.72 µM (inactive) | 16.6 µM (inactive) | 2.79 µM (inactive) | 9.98 µM (inactive) |  | 24 µM (inactive) | 8.43 µM (inactive)
18 | Cc1ccccc1C(C#N)/C(=N/NC(=O)C(=O)NN)C(=O)Nc1cccc(C(F)(F)F)c1 (configuration not stated) | > 100 µM (inactive) | > 100 µM (inactive) | > 100 µM (inactive) | > 100 µM (inactive) | > 100 µM (inactive) | > 100 µM (inactive) | > 100 µM (inactive) | > 100 µM (inactive) | 
19 | C[C@H]1CC[C@H](NC(=O)N(CCCl)N=O)CC1 | 39.5 µM (inactive) | 36.5 µM (inactive) | 33.1 µM (inactive) | 40.8 µM (inactive) | 14.9 µM (inactive) | 41.3 µM (inactive) | 33.1 µM (inactive) | 35.2 µM (inactive) | 45.7 µM (inactive)
20 | Cc1ccccc1C1=C/C(=C(\SS/C(C(=O)c2ccc(OCC(=O)O)c(Cl)c2Cl)=C2\C=C(c3ccccc3C)SS2)C(=O)c2ccc(OCC(=O)O)c(Cl)c2Cl)SS1 | 23.8 µM (inactive) | 9.04 µM (inactive) | 20 µM (inactive) | 16.2 µM (inactive) | 4.45 µM (inactive) | 21.3 µM (inactive) | 25.9 µM (inactive) | 14.4 µM (inactive) | 19.2 µM (inactive)
21 | COC[C@@H](/N=C/N1CCc2cc(OC)c(OC)cc2C1)C(C)(C)C | > 100 µM (inactive) | > 100 µM (inactive) |  | > 100 µM (inactive) | > 100 µM (inactive) | > 100 µM (inactive) | > 100 µM (inactive) |  | > 100 µM (inactive)
22 | COc1ccc(OC)c(CCc2ccccc2CC(=O)O)c1 | > 100 µM (inactive) | > 100 µM (inactive) | > 100 µM (inactive) | > 100 µM (inactive) | > 100 µM (inactive) | > 100 µM (inactive) |  | > 100 µM (inactive) | > 100 µM (inactive)
23 | CC(C)C(Nc1c2ccccc2nc2ccccc12)C(=O)O (configuration not stated) | > 100 µM (inactive) |  | 68.4 µM (inactive) |  | > 100 µM (inactive) | > 100 µM (inactive) |  |  | 3.08 µM (inactive)
24 | COc1cc(-c2nnc3n2NC=C(C(=O)O)S3)cc(OC)c1OC | > 57.8 µM (inactive) | > 56.5 µM (inactive) | > 60.3 µM (inactive) | > 70.1 µM (inactive) | > 71.6 µM (inactive) | > 69.3 µM (inactive) | > 100 µM (inactive) | > 100 µM (inactive) | > 100 µM (inactive)
